Reference: patent US20170333522A1, “EXPRESSION AND FUNCTION OF GPR64/ADGRG2 IN ENDOCRINE SYSTEMS AND METHODS TO TARGET IT THERAPEUTICALLY” (priority 2016, published 2017)

Legend:
[1] = system: human parathyroid adenoma cells; assay: PTH secretion from freshly dispersed human parathyroid adenoma cells (intact PTH ELISA); assay type: cell-based; conditions: 30 min
Experimental: Dispersed primary human parathyroid cells were rested for 1 hr at 37° C. in keratinocyte-SFM media (Thermo Fisher Scientific#37010-022) supplemented with the manufacturer's provided media supplements, antibiotics and 1.25 mM Ca^2+. Cells were then centrifuged and transferred to KSFM media with various concentrations of Ca^2+, P-15 peptide, forskolin and volumetric equivalent of DMSO for 30 min at 37° C. Supernatants were collected by centrifugation at 10,000 rpm, 5 min at 4° C. and were stored in −80 for determination of intact PTH.
Human intact PTH (1-84) in cell supernatants was measured in a colorimetric ELISA assay (Immutopics International #60-3000).

[2] = system: tumor cells from tertiary hyperparathyroidism; assay: PTH secretion from isolated tumor cells of tertiary hyperparathyroidism glands; assay type: cell-based, human
Experimental: FIG. 14A. Tertiary hyperparathyroidism following kidney transplantation. […] Isolated tumor cells from tertiary hyperparathyroidism gland A were stimulated with calcium (CaSR agonist) and P-15 peptide (GPR64 agonist) in vitro and PTH secretion was measured.
FIG. 14B. Tertiary hyperparathyroidism following kidney transplantation. […] Isolated tumor cells from tertiary hyperparathyroidism gland C were stimulated with calcium (CaSR agonist) and P-15 peptide (GPR64 agonist) in vitro and PTH secretion was measured. Cells express very high levels of GPR64 and are unresponsive to calcium-mediated suppression of PTH secretion.

HEK-CaSR cells = assay: cAMP accumulation assay in HEK-CaSR cells; assay type: cell-based, human; conditions: activation of CaSR by 3 mM Ca^2+, forskolin-stimulated cells
[3] = system: P-15-induced CRE induction; assay: P-15-induced CRE induction in GPR64-transfected HEK cells after preincubation with kinase inhibitors; assay type: cell-based, human; conditions: 1 hr preincubation (H-89 20 μM, U0126 10 μM) before 100 μM P-15 for 5 hrs
Experimental: FIG. 7. HEK cells were transfected with pCRE-Luc and GPR64 and were preincubated with DMSO (vehicle), H-89 (PKA inhibitor, 20 μM) or U0126 (MEK inhibitor, 10 μM) for 1 hr before stimulation with either DMSO or 100 μM P-15 peptide for 5 hrs. Luciferase assay data are normalized to vehicle-preincubated, DMSO stimulated cells. Data are mean±SD from 3 independent experiments conducted in triplicates. *: P<0.05, **: P<0.01.
HEK cells were seeded in white opaque 96-well plates (30,000 cell/well) and were transfected with pCRE-Luc (100 ng/well) along with different doses of empty or GPR64-expressing plasmids. Cell were either left untreated or stimulated with different concentrations of P-15 peptide for 5 hrs at 37° C. Luminescence was measured in a FLEXStationIII plate reader (Molecular Devices).

GPR64ΔNTF [4] = biological target: T1, GPR64ΔNTF (Homo sapiens, UniProt Q8IZP9); assay: CRE reporter gene assay (pCRE-Luc) in HEK cells transfected with GPR64ΔNTF; assay type: cell-based; conditions: increasing concentrations of P-15, 5 hrs
T1 construct: The human GPR64 variant 1 (full length with 1017 amino acids); expressed in transfected cells; host or cells: AD-293 (HEK) cells, transient transfection with pcDNA3.1-GPR64ΔNTF
Experimental: (§1) FIG. 2. (A) HEK cells were transfected with pCRE-Luc in combination with 200 ng of pcDNA3.1, GPR64 or GPR64ΔNTF plasmids and were stimulated with increasing concentrations of 15 amino acid-long human GPR64 peptide (P-15) for 5 hrs. Luciferase activity (CRE induction) was measured and data were normalized to the values of cells transfected with pcDNA3.1. Data are mean±SD from 3-4 independent experiments conducted in triplicates. (B) Forty eight hrs post-transfection with pcDNA3.1, GPR64 or GPR64ΔNTF plasmids, HEK cells were stimulated with DMSO (vehicle) or 100 μM P-15 peptide for 30 min and cAMP accumulation was measured in an ELISA assay at 405 nm. […] (C) Freshly isolated human adenoma parathyroid cells were stimulated with increasing concentrations of Ca^2+ and P-15 or DMSO (vehicle) for 30 min and the concentration of secreted intact PTH was measured by ELISA. […] (D) Freshly isolated human adenoma parathyroid cells were stimulated with increasing concentrations of Ca^2+ and forskolin (FSK, 3 and 5 μM) or DMSO (vehicle) for 30 min and the concentration of secreted intact PTH was measured by ELISA. […]
(§2) HEK cells were seeded in white opaque 96-well plates (30,000 cell/well) and were transfected with pCRE-Luc (100 ng/well) along with different doses of empty or GPR64-expressing plasmids. […] Luminescence was measured in a FLEXStationIII plate reader (Molecular Devices).

GPR64ΔNTF [5] = biological target: T1, GPR64ΔNTF; assay: cAMP accumulation assay in HEK-CaSR cells transfected with GPR64ΔNTF; assay type: cell-based; conditions: concomitant 3 mM Ca^2+ and 100 μM P-15
GPR64 [6] = biological target: T2, GPR64 (Homo sapiens, UniProt Q8IZP9); assay: cAMP accumulation assay (ELISA) in HEK cells transfected with GPR64; assay type: cell-based; set-up: The human GPR64 variant 1 (full length with 1017 amino acids); expressed in transfected cells; host or cells: AD-293 (HEK) cells, transient transfection with pcDNA3.1-GPR64; conditions: 100 μM P-15, 30 min, 48 hrs post-transfection
Experimental: FIG. 2. (A) HEK cells were transfected with pCRE-Luc in combination with 200 ng of pcDNA3.1, GPR64 or GPR64ΔNTF plasmids and were stimulated with increasing concentrations of 15 amino acid-long human GPR64 peptide (P-15) for 5 hrs. Luciferase activity (CRE induction) was measured and data were normalized to the values of cells transfected with pcDNA3.1. Data are mean±SD from 3-4 independent experiments conducted in triplicates. (B) Forty eight hrs post-transfection with pcDNA3.1, GPR64 or GPR64ΔNTF plasmids, HEK cells were stimulated with DMSO (vehicle) or 100 μM P-15 peptide for 30 min and cAMP accumulation was measured in an ELISA assay at 405 nm. Data were corrected to the protein concentration in samples. Data are mean±SD from 3 independent experiments conducted in triplicates. *: P<0.05, ****: P<0.0001. (C) Freshly isolated human adenoma parathyroid cells were stimulated with increasing concentrations of Ca^2+ and P-15 or DMSO (vehicle) for 30 min and the concentration of secreted intact PTH was measured by ELISA. Data were normalized to the PTH secretion in vehicle-treated cells cultured in 0.5 mM Ca^2+. […] (D) Freshly isolated human adenoma parathyroid cells were stimulated with increasing concentrations of Ca^2+ and forskolin (FSK, 3 and 5 μM) or DMSO (vehicle) for 30 min and the concentration of secreted intact PTH was measured by ELISA. […]

GPR64 [7] = biological target: T2, GPR64; assay: cAMP accumulation assay in HEK-CaSR cells transfected with GPR64; assay type: cell-based; set-up: The human GPR64 variant 1 (full length with 1017 amino acids); expressed in transfected cells; host or cells: HEK-CaSR cells (AD-293 clone stably expressing FLAG-tagged human CaSR), transient transfection with pcDNA3.1-GPR64; conditions: 100 μM P-15, 30 min, 1.25 or 3 mM Ca^2+
GPR64 [8] = biological target: T2, GPR64; assay: CRE reporter gene assay (pCRE-Luc) in HEK cells transfected with GPR64; assay type: cell-based; set-up: The human GPR64 variant 1 (full length with 1017 amino acids); expressed in transfected cells; host or cells: AD-293 (HEK) cells, transient transfection with pcDNA3.1-GPR64; conditions: increasing concentrations of P-15, 5 hrs
Experimental: as §1, §2

T2 sequence (Q8IZP9 38-1017): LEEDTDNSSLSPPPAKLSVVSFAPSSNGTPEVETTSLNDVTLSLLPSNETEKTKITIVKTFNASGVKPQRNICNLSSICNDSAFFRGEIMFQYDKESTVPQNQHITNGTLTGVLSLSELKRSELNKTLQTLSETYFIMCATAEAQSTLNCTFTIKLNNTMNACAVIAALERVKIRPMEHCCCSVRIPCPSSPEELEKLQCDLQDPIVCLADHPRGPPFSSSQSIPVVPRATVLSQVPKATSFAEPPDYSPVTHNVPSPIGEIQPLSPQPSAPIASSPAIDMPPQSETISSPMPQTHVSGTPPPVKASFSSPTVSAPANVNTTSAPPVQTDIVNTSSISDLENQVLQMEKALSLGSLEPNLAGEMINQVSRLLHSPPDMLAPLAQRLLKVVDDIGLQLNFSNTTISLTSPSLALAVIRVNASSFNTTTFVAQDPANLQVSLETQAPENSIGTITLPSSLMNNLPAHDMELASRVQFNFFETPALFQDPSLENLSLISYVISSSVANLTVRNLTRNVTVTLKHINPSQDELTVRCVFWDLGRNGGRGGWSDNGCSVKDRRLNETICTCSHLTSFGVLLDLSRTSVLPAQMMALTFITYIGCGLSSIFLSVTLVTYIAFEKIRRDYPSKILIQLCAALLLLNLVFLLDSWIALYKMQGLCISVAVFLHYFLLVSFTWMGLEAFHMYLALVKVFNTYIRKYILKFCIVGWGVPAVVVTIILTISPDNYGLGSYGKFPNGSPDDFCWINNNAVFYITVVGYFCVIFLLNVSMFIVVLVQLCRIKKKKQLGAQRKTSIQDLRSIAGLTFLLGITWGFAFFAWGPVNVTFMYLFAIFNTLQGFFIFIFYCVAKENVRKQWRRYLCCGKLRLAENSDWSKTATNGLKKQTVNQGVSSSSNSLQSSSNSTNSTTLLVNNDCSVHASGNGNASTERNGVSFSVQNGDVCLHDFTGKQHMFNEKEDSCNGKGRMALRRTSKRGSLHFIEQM
T1 sequence (Q8IZP9 607-1017 limits assumed, stated change not applied): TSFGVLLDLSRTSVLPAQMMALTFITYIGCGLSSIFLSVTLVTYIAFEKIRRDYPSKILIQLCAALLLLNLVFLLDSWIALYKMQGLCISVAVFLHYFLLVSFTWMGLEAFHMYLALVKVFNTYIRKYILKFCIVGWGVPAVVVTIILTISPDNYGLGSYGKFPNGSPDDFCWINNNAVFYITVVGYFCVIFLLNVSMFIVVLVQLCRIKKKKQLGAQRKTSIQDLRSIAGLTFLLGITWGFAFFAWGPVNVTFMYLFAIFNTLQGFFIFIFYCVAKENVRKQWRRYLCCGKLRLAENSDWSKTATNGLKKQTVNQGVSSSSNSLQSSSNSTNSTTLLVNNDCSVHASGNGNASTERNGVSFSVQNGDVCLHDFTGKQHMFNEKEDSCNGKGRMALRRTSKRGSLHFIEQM

Molecule: [Ca+2].[Cl-].[Cl-] [Calcium, Calcium chloride, reference compound]
- PTH secretion ([1]; increasing concentrations of Ca^2+): suppressed PTH secretion in a dose-dependent manner
- calcium-mediated suppression of PTH secretion ([2]; tertiary hyperparathyroidism gland C, cells express very high levels of GPR64): unresponsive
- cAMP level (HEK-CaSR cells): suppressed cAMP levels significantly

Molecule: O=S(=O)(NCCNC/C=C/c1ccc(Br)cc1)c1cccc2cnccc12 [H-89]
- effect on P-15-induced CRE induction [3]: blunted the P-15-induced CRE induction

Molecule: N#CC(=C(/N)Sc1ccccc1N)/C(C#N)=C(\N)Sc1ccccc1N [U0126]
- effect on P-15-induced CRE induction [3]: did not inhibit CRE induction

Molecule: TSFGVLLDLSRTSVL [P-15, GPR64 agonist]
- PTH secretion ([1]; P-15 with various concentrations of Ca^2+): elevated the PTH secretion
- PTH secretion ([2]; tertiary hyperparathyroidism gland A, calcium plus P-15 in vitro): higher PTH secretion
- CRE induction (luciferase activity) (GPR64ΔNTF [4]): concentration-dependent CRE induction
- intracellular cAMP (GPR64ΔNTF [5]): restored the intracellular cAMP to the level of cells activated only with P-15 in normocalcemic conditions
- cAMP production (GPR64 [6]): specifically activates GPR64 to produce cAMP
- cAMP production (GPR64 [7]): increased cAMP production irrespective of CaSR activation with 3 mM Ca^2+
- CRE induction (luciferase activity) (GPR64 [8]; GPR64-transfected HEK cells): concentration-dependent CRE induction
- CRE induction (luciferase activity) (GPR64 [8]; control cells (pcDNA3.1-transfected HEK)): absent
